Source: paper PMC12117711, “The contribution of cyclic imide stereoisomers on cereblon-dependent activity†” (Chemical Science, 2025)
Blank lines part the entries; values can stand above or below the molecule they belong to. Non-standard residues stand in square brackets, D forms with d. No end group written: not given here. *: point of attachment. epicN = C-terminal cyclic asparagine (aspartimide), (R)-epimer, epimer of cN, O=C1C[C@@H](N*)C(=O)N1; cQ = C-terminal cyclic glutamine (glutarimide), (S)-epimer, O=C1CC[C@H](N*)C(=O)N1; Fmoc = O=C(OCC1c2ccccc2-c2ccccc21)*

Columns and labels:
[1] = target: T1, BRD4(BD1)-GFP in HEK293T cells (Homo sapiens, UniProt O60885+Q96SW2); assay: Degradation assay by flow cytometry, BRD4(BD1)-GFP; assay type: cell-based; settings: 76 pM–20 μM, 4 h
T1 construct: HEK293T cells stably expressing BRD4(BD1) fused to GFP
Method: (v21.1.1) and Adobe Illustrator (v24.1).
MM.1S, MOLM13, Jurkat, and BxPC3 […]
μg/mL), and 10% (v/v) FBS.
Western Blotting Procedures […]
lysates and the concentration was adjusted using lysis buffer. 5× SDS-PAGE loading buffer […]
Protein samples (8–15 μL per lane) were […]
precast gels for medium molecular weight proteins. Gels were transferred to membranes using […]
for high molecular weight proteins. Membranes were stained with Ponceau S solution to visualize transfer and protein loading.
Degradation assay by flow cytometry […]
resuspension in DMEM +/– without phenol red. For IKZF1 degradation assay, propidium […]
equipped with a high throughput sampler. […]
using the BD FACSDiva software v9.1. For each experimental condition, the arithmetic mean […]
comparing compound treatment to DMSO control.
Structural proteomics mass spectrometry sample preparation […]
sample throughout the assay duration. The same analysis was also applied to the (S)- […]
dependent activity, we adjusted the dose-response curves accordingly. Because dose- […]
within the error margins of the original curve. […]
squares F-test. This analysis determined whether there was a statistically significant […]
derived (S)-enantiomer. If there is a statistically significant difference, the null […]
Cells were treated with 1 μM MLN4924
The cells were collected and lysed in […]
centrifugation (21,000 × g, 4 °C, 10 min). […]

MOLM13 cells = assay: Global quantitative proteomics of protein levels; assay type: cell-based; settings: 4 h; for FC [fold change abundances (S/DMSO)] / logFC (S vs DMSO): MOLM13, 100 nM
Method: Global Quantitative Proteomics Sample Preparation and Mass Spectrometry Acquisition Global Quantitative Proteomics was performed according to the previously reported method.7 Briefly, 1.0×10^6 MOLM13 cells were seeded in 12-well plates and small molecules of interest were added, and cells were incubated at 37 °C, 5% CO2 for 4 hours. Cells were collected […]
15 sec in total, 11% amplitude) in lysis buffer (5% SDS in 50 mM triethylammonium bicarbonate (TEAB), pH 7.55), and cleared by centrifugation (21,000 × g, 4 °C, 10 min). After protein quantification by BCA protein assay, the lysates were diluted to 1.5 mg/mL with the lysis buffer. The diluted lysates (60 μL) were reduced by addition of dithiothreitol (20 mM) at 24 °C for 30 min then alkylated by addition of iodoacetamide (40 mM) and incubation in the dark at 24 °C for 30 min.

His6-CRBN/DDB1 = His6-CRBN/DDB1 (Homo sapiens, UniProt Q96SW2); assay: TR-FRET ligand displacement assay (Thal-FITC tracer) with His6-CRBN/DDB1
[2] = target: T2, His6-CRBN/DDB1 and GST-BRD4(BD2) (Homo sapiens, UniProt O60885+Q96SW2); assay: AlphaScreen ternary complex formation, His6-CRBN/DDB1 and GST-BRD4(BD2); assay type: binding
T2 construct: His6-CRBN/DDB1 complex and GST-BRD4 BD2 domain; purchased Epicypher (GST-BRD4(BD2)); Bristol Myers Squibb gift (His6-CRBN/DDB1) 15-0013
Method: AlphaScreen was performed according to the previously reported method.7 Briefly, for AlphaScreen of His6-CRBN/DDB1, GST-IKZF1 and (S)-, (R)- or rac-lenalidomide-d3, a solution of 100 nM His6-CRBN/DDB1 and 200 nM GST-IKZF1 in 1x AlphaScreen buffer (5 µL) and a solution of the indicated compound in 1x AlphaScreen buffer (5 µL) were added to a each well of a 384-well Optiplate and incubated at 24 °C for 1 h. To each well, a solution of 5 µL of 60 µg/mL AlphaScreen Glutathione Donor beads, 60 µg/mL AlphaLISA Nickel Chelate Donor beads in 1× AlphaScreen buffer was added to each well and incubated at 24 °C for 1 h in the dark and the plate was analyzed. For AlphaScreen of His6-CRBN/DDB1, GST-BRD4(BD2) and bivalent degraders, a solution of 750 nM His-CRBN/DDB1 and 375 nM GST-BRD4(BD2) in 1x AlphaScreen buffer (5 µL) and a solution of the indicated compound in 1x AlphaScreen buffer (5 µL) were added to a each well of a 384-well Optiplate and incubated at 24 °C for 1 h. To each well, a solution of 5 µL of 60 µg/mL AlphaScreen Glutathione Donor beads, 60 µg/mL AlphaLISA Nickel Chelate Donor beads in 1× AlphaScreen buffer was added to each well and incubated at 24 °C for 1 h in the dark and the plate was analyzed. […]
heated at 95 °C for 5 min. 10 µL of the immunoprecipitated sample was load on a 12% Tris-glycine gel and probe-labeling was visualized by fluorescence signal. Separately, 10 µL of the immunoprecipitated sample and the “input” sample were load on a 12% Tris-glycine gel and analyzed by Western blotting. […]
Parental cell lines were stably infected with a unique 24-nucleotide DNA barcode via lentiviral transduction and blasticidin selection. […] Passing barcoded lines were then pooled (20-25 cell lines per pool) based on doubling time and frozen in assay-ready vials.
Test compounds were added to 384-well plates and run at 8 pt. dose with 3-fold dilutions, the highest concentration of 25 µM in triplicate. These assay ready plates were then seeded with […]

CRBN = tested on: CRBN; parameters: method as in PMID 29358579, PMID 32929090, PMID 25043012, PMID 25108355; settings: cited from earlier work
[3] = in vitro, 0.1 M phosphate buffer (pH 7.4), 37 °C; cited from earlier work
His6-CRBN/DDB1 complex [4] = target: His6-CRBN/DDB1 complex (UniProt Q96SW2); assay: AlphaScreen or HTRF; competitive TR-FRET ligand displacement assay against recombinant His6-CRBN/DDB1; KD from dose-titration of the ligand
His6-CRBN/DDB1 complex [5] = target: T3, His6-CRBN/DDB1 complex (UniProt Q96SW2 1-442; Q16531 1-1140); assay: AlphaScreen or HTRF; competitive TR-FRET ligand displacement; peptide titrated against recombinant His6-CRBN/DDB1 (2.5 nM) with the tracer Thalidomide-FITC (50 nM); KD from IC50 by the correction factor 1.426 (tracer KD 2-site 117.3 nM); settings: both partners purified
T3 construct: cereblon (CRBN), E3 ligase substrate adapter; DDB1, in complex with His6-CRBN; Column 'Protein' of S0003 says only 'CRBN'; the text and legends name His6-CRBN/DDB1 for this TR-FRET assay; also called cereblon; source: recombinant

His6-CRBN/DDB1 complex [6] = target: T4, His6-CRBN/DDB1 complex (UniProt Q96SW2 1-442; Q16531 1-1140); assay: AlphaScreen or HTRF; competitive TR-FRET ligand displacement assay against recombinant His6-CRBN/DDB1; KD from dose-titration of the ligand; settings: both partners purified
T4 construct: cereblon (CRBN), E3 ligase substrate adapter; DDB1, in complex with CRBN; Used as a preformed complex in TR-FRET and AlphaScreen; also called cereblon; source: recombinant

degradation of BRD4(BD1)-GFP [1]: depleted BRD4 in a dose-dependent manner
Kd (His6-CRBN/DDB1; KD, competitive TR-FRET, His6-CRBN/DDB1): < 1 nM
Kd (His6-CRBN/DDB1; predicted KD of the (S)-stereoisomer, ligand displacement assay adjusted for (S)-stereoisomer, (S)-stereoisomer in the (S)-sample, corrected for racemization): 2.9 ± 0.2 nM
Molecule: [2H]C1([2H])C[C@]([2H])(N2Cc3cc(NC(=O)CCCCCCCCNC(=O)C[C@@H]4N=C(c5ccc(Cl)cc5)c5c(sc(C)c5C)-n5c(C)nnc54)ccc3C2=O)C(=O)NC1=O [JQ1-(S)-Len-d3]
BRD4 protein levels by global quantitative proteomics (MOLM13 cells; MOLM13 cells, 100 nM): most significantly downregulated protein
FC [fold change abundances (S/DMSO)] (MOLM13 cells; protein BRD4): -1.354
logFC (S vs DMSO) (MOLM13 cells; protein BRD4): -0.6026
FC [fold change abundances (S/DMSO)] (MOLM13 cells; protein BRI3BP): 2.54
logFC (S vs DMSO) (MOLM13 cells; protein BRI3BP): 1.398
FC [fold change abundances (S/DMSO)] (MOLM13 cells; protein C8orf33): 1.053
logFC (S vs DMSO) (MOLM13 cells; protein C8orf33): 0.3248
FC [fold change abundances (S/DMSO)] (MOLM13 cells; protein KPNA3): 1.127
logFC (S vs DMSO) (MOLM13 cells; protein KPNA3): 0.397
FC [fold change abundances (S/DMSO)] (MOLM13 cells; protein PSME2): 1.009
logFC (S vs DMSO) (MOLM13 cells; protein PSME2): 0.2805
ternary complex formation between His6-CRBN/DDB1 and GST-BRD4(BD2) [2]: promoted a significant ternary complex formation

Molecule: O=C1CC[C@H](N2C(=O)c3ccccc3C2=O)C(=O)N1 [(S)-thalidomide]
fold greater binding affinity to CRBN than (R)-thalidomide (CRBN): approximately 10 fold

Molecule: O=C1CC[C@@H](N2C(=O)c3ccccc3C2=O)C(=O)N1 [(R)-thalidomide]
t50%ee (racemization half-life) [3]: 2.9 h

Kd (His6-CRBN/DDB1 complex [4]): 2870 nM
IC50 (His6-CRBN/DDB1 complex [5]): 4090 nM
Molecule: Fmoc-GGGF[epicN] (pentapeptide; source: synthetic peptide) [Fmoc-GGGFepicN]

Kd (His6-CRBN/DDB1 complex [6]): 89 nM
B1: Fmoc-GGGFcQ (peptide)
peptide: Fmoc-GGGF[cQ]
notes: pentapeptide bearing the (S)-epimer of cyclic glutamine at the C-terminus; also called FcQ pentapeptide; source: synthetic peptide
